This note sets out measurements from publication PMC8426295, “Cytotoxic and radiosensitising effects of a novel thioredoxin reductase inhibitor in breast cancer” (Investigational New Drugs, 2021).

The subject of assay [1] is MCF-7 cells. The assay is described as follows: Cell proliferation assay (cell count). Type of assay: cell-based. To be noted: Homo sapiens, MCF7, 48 h. How it is done:
(§1) 1 × 10^5 cells (2 × 10^5 for T47D’s) were seeded, in triplicate, in 6-well plates and incubated overnight before being treated with IQ9 (0–5000 nM) or doxorubicin (400–600 nM) (positive control and comparator). Total cells were counted after 48 h using a haemocytometer. The total cell count in drug treatment wells was normalised as a percentage of the total cells in vehicle control wells.
(§2) IC50 values were calculated from dose-response curves using an SPSS regression model between inhibition ratios and concentration gradients. The radiobiological parameters: alpha (α), beta (β), α/β ratio, and surviving fraction at 2 Gy (SF2) were extracted from the survival curves fitted using the LQ model. All results are presented as average ± standard deviation (SD) of three independent experiments, each performed in triplicate. Data were analysed using the student T-test and ANOVA one-way test. Statistical analysis was performed using SPSS 23.0 software. Values of P < 0.05 were considered statistically significant.

Assay [2] concerns MDA-MB-231 cells. Briefly: Cell proliferation assay (cell count). Type of assay: cell-based. To be noted: Homo sapiens, MDA-MB-231, 48 h. On the procedure: as §1, §2
In assay [3] the test system is MDA-MB-436 cells. The assay is described as follows: Cell proliferation assay (cell count). Type of assay: cell-based. Conditions: Homo sapiens, MDA-MB-436, 48 h. How it is done:
as §1, §2

Assay [4] relates to MDA-MB-468 cells. Briefly: Cell proliferation assay (cell count). Conditions: Homo sapiens, MDA-MB-468, 48 h. Type of assay: cell-based. How it is done:
as §1, §2

Assay [5] has as its system T47D cells. Briefly: Cell proliferation assay (cell count). The class given is cell-based. Conditions: Homo sapiens, 48 h. How it is done: as §1, §2
For assay [6], the system named is MCF-7 cells. Briefly: Clonogenic survival assay. Type of assay: cell-based. To be noted: Homo sapiens. On the procedure:
(§3) 5 × 10^5 cells were seeded in T25 cm^2 tissue culture flasks and incubated overnight. The sub-confluent cells were then treated either for 4-h or 48-h with IQ9 (0–5000 nM) or doxorubicin (10–20 nM). Following drug treatment, cells were collected, counted, and plated at low-density, in triplicate, and incubated, at 37 °C, 5% CO2, undisturbed, for 2 weeks for TNBC cells and 3 weeks for luminal cells, for colony formation. Colonies were fixed (50% methanol in 0.9% saline solution) and stained (0.5% crystal violet solution). Colonies consisting of more than 50 cells were confirmed by microscopy and scored as survivors. The plating efficiency (PE) was calculated as numbers of colonies formed/ numbers of cells plated. For single-agent treatment, drug or radiation, the surviving fraction was calculated as: number of colonies formed/ (numbers of cell plated x PE). For drug radiation combination experiments, cytotoxicity of drug treatment was accounted for by calculating surviving fraction as: number of colonies formed from each radiation dose/ (number of cells plated × PE × surviving fraction of drug-treated cell at 0 Gy).
as §2

The subject of assay [7] is MDA-MB-231 cells. The assay is described as follows: Clonogenic survival assay. Type of assay: cell-based. To be noted: Homo sapiens. On the procedure: as §3, §2
Assay [8] concerns MDA-MB-436 cells. The assay is described as follows: Clonogenic survival assay. Type of assay: cell-based. To be noted: Homo sapiens. How it is done:
as §3, §2

The test system of assay [9] is MDA-MB-468 cells. The assay is described as follows: Clonogenic survival assay. To be noted: Homo sapiens. Type of assay: cell-based. How it is done:
as §3, §2

For assay [10], the system named is T47D cells. The assay is described as follows: Clonogenic survival assay. The class given is cell-based. To be noted: Homo sapiens. How it is done: as §3, §2
The test system of another assay is TrxR. The assay is described as follows: Western blotting of TrxR expression. The class given is cell-based, human. Conditions: clonogenic IC50 concentration, 48 h. On the procedure:
(§4) Cells were treated with IQ9 (clonogenic IC50 concentrations) for 48 h, harvested, and resuspended in 1 mL of RIPA buffer (Sigma, UK) supplemented with 1X Halt phosphatase inhibitor cocktail, protease inhibitor cocktail, and EDTA. Samples were run on an SDS-polyacrylamide gel and transferred onto a 0.2 μm nitrocellulose membrane (GE Healthcare). The membrane was then blocked using 5% milk powder in 0.1% PBS/ Tween20, for 1 h at room temperature and then incubated with primary antibody overnight at 4 °C. Anti-β-actin antibody (Abcam) was used as a loading control. Primary antibodies were rabbit anti-human Trx (Abcam; 1:1000), mouse anti-human antibody (Abcam; 1:500), and rabbit anti-human Txnip (Abcam; 1:500). For Trx and Txnip, bands were detected using an Odyssey FC Imager (LI-COR). Images were obtained and fluorescence intensity quantified using Image Studio Software (version 4). The signals for Trx and Txnip were normalised against β-actin. For TrxR, bands were detected using an Amersham Enhanced Chemiluminescence system (GE Healthcare).
In general terms: A western blot detects proteins with antibodies after separation by electrophoresis.

In the next assay the test system is Txnip. The assay is described as follows: Western blotting of Txnip expression. To be noted: any of the breast cancer cell lines, clonogenic IC50 concentration, 48 h. Type of assay: cell-based, human. How it is done: as §4
A further assay concerns breast cancer cells. The assay is described as follows: Potency against breast cancer cells (IC50 range, comparison of TrxR inhibitors). Conditions: Homo sapiens; range over the cell lines and assays of this study. The class given is cell-based.

What is called IC50 is the concentration at which inhibition is half-maximal. For `COC1=CC(=O)c2c(c(COc3c(F)cc(F)cc3F)cn2C)C1=O` [IQ9], the half-maximal inhibitory concentration (IC50) in the assay on MCF-7 cells [1] came to 379 ± 42.4 nM; with MDA-MB-231 cells [2], 246 ± 55.3 nM; in the assay with MDA-MB-436 cells [3], 171 ± 81.4 nM; in the assay with MDA-MB-468 cells [4], 425 ± 155 nM; in the assay on T47D cells [5], 1430 ± 255 nM; with MCF-7 cells [6] (MCF7, 4 h), 340.5 ± 2.1 nM. The IC50 stood at 601 ± 114 nM in the assay with MCF-7 cells [6] (MCF7, 48 h); 565 ± 29.5 nM with MDA-MB-231 cells [7] (MDA-MB-231, 4 h); 324 ± 20.1 nM in the assay with MDA-MB-231 cells [7] (MDA-MB-231, 48 h); 195 ± 4.5 nM in the assay with MDA-MB-436 cells [8] (MDA-MB-436, 4 h); 236 ± 71.5 nM in the assay with MDA-MB-436 cells [8] (MDA-MB-436, 48 h); 502 ± 171 nM with MDA-MB-468 cells [9] (MDA-MB-468, 4 h). For the same compound, the IC50 in the assay with MDA-MB-468 cells [9] (MDA-MB-468, 48 h) was 916 ± 173 nM; in the assay on T47D cells [10] (4 h) it was 2070 ± 53.7 nM; with T47D cells [10] (48 h), 1880 ± 298 nM; with breast cancer cells, 200 to 2000 nM. The “expression of TrxR” value is “little effect, if any” with TrxR (TNBC cells) and “Increased expression” with TrxR (luminal cells). For the same compound, in the assay on Txnip, the Txnip expression result was “not affected”.
